Source: patent US5043450A, “8-alkoxyquinolonecarboxylic acid and salts thereof” (priority 1986, dated 1991)
Converted amounts (≈) assume the structure as drawn. Where two headings read alike, the source gives them in different places.

Tests used:
Assay type in all cases: cell-based
Bacilus subtilis PCI 219 = test: Antibacterial spectra, MIC; details: Bacillus subtilis, PCI219
[1] = tested on: Staphylococcus aureus 209 P; test: Antibacterial spectra, MIC
[2] = tested on: S. aureus IID 670 (Terajima); test: Antibacterial spectra, MIC; details: Staphylococcus aureus, IID670
S. aureus Smith = test: Antibacterial spectra, MIC; details: Staphylococcus aureus
E. coli ML 4707 = test: Antibacterial spectra, MIC; details: Escherichia coli, ML4707; 10^6 cells/ml; Gram -
Protocol: (§1) The antibacterial test was carried out according to the method designated by Japan Society of Chemotherapy.

E. faecalis IID 682 = test: Antibacterial spectra, MIC; details: Enterococcus faecalis, IID682; 10^6 cells/ml; Gram +
Protocol: as §1

[3] = tested on: Proteus vulgaris IFO 3167; test: Antibacterial spectra, MIC; details: IFO3167, 10^6 cells/ml, Gram -
Protocol: as §1

Shigella sonnei IID 969 = test: Antibacterial spectra, MIC; details: IID969, 10^6 cells/ml, Gram -
Protocol: as §1

[4] = tested on: Streptococcus pyogenes (S-8); test: Antibacterial spectra, MIC; details: 10^6 cells/ml, Gram +
Protocol: as §1

S. pyogenes IID 692 = test: Antibacterial spectra, MIC; details: Streptococcus pyogenes, IID692
S. pneumoniae IID 552 = test: Antibacterial spectra, MIC; details: Streptococcus pneumoniae, IID552
[5] = tested on: Escherichia coli NIHJ JC-2; test: Antibacterial spectra, MIC; details: NIHJJC2
E. coli ATCC 10536 = test: Antibacterial spectra, MIC; details: Escherichia coli, ATCC10536
P. mirabilis IID 994 = test: Antibacterial spectra, MIC; details: Proteus mirabilis, IID994
[6] = tested on: Morganella morganii IID 602; test: Antibacterial spectra, MIC; details: IID602
[7] = tested on: Klebsiella pneumoniae KY(GN)6445; test: Antibacterial spectra, MIC
K. pneumoniae 1-220S = test: Antibacterial spectra, MIC; details: Klebsiella pneumoniae, 1220S
[8] = tested on: Enterobacter cloacae IID 977; test: Antibacterial spectra, MIC; details: IID977
[9] = tested on: Citrobacter freundii IID 976; test: Antibacterial spectra, MIC; details: IID976
[10] = tested on: Serratia marcescens IID 618; test: Antibacterial spectra, MIC; details: IID618
[11] = tested on: Salmonella enteritidis IID 604; test: Antibacterial spectra, MIC; details: Salmonella enterica
[12] = tested on: Pseudomonas aeruginosa V-1; test: Antibacterial spectra, MIC; details: V1
P. aeruginosa IFO 12689 = test: Antibacterial spectra, MIC; details: Pseudomonas aeruginosa, IFO12689; 10^6 cells/ml; Gram -; read-out: MIC
P. aeruginosa IID 1210 = test: Antibacterial spectra, MIC; details: Pseudomonas aeruginosa, IID1210; 10^6 cells/ml; Gram -; read-out: MIC
P. cepacia GIFU 518 = test: Antibacterial spectra, MIC; details: Burkholderia cepacia, GIFU518; 10^6 cells/ml; Gram -; read-out: MIC
P. maltophilia GIFU 2491 = test: Antibacterial spectra, MIC; details: Stenotrophomonas maltophilia, GIFU2491
[13] = tested on: Yersinia enterocolitica IID 981; test: Antibacterial spectra, MIC; details: IID981
[14] = tested on: Acinetobacter anitratus IID 876; test: Antibacterial spectra, MIC; details: Acinetobacter calcoaceticus, IID876
[15] = tested on: Alcaligenes faecalis 0114002; test: Antibacterial spectra, MIC
[16] = tested on: Bacteroides fragilis GM 7000; test: Antibacterial spectra, MIC
B. fragilis 0558 = test: Antibacterial spectra, MIC; details: Bacteroides fragilis
B. fragilis 25285 = test: Antibacterial spectra, MIC; details: Bacteroides fragilis
B. distasonis 8503 = test: Antibacterial spectra, MIC; details: Parabacteroides distasonis, 10^6 cells/ml, Gram -, read-out: MIC
[17] = tested on: B. thetaiotaomicron (0661); test: Antibacterial spectra, MIC; details: Bacteroides thetaiotaomicron; 10^6 cells/ml; Gram -; read-out: MIC
B. vulgatus KYA 29327 = test: Antibacterial spectra, MIC; details: Phocaeicola vulgatus, KYA29327
[18] = tested on: Fusobacterium mortiferum 4249; test: Antibacterial spectra, MIC
F. necrophorum S-45 = test: Antibacterial spectra, MIC; details: Fusobacterium necrophorum, S45; 10^6 cells/ml; Gram -; read-out: MIC
F. varium KYA 8501 = test: Antibacterial spectra, MIC; details: Fusobacterium varium, KYA8501; 10^6 cells/ml; Gram -; read-out: MIC
[19] = tested on: Eubacterium lentum GAI 5242; test: Antibacterial spectra, MIC; details: Eggerthella lenta, GAI5242
[20] = tested on: Propionibacterium acens 11828; test: Antibacterial spectra, MIC; details: 10^6 cells/ml, Gram +, read-out: MIC
[21] = tested on: Peptococcus magnus KY 017; test: Antibacterial spectra, MIC; details: Finegoldia magna, KY017
C. perfringens KYA 13123 = test: microbe, parasite or virus in culture; details: Clostridium perfringens, KYA13123
C. ramosum = test: Antibacterial spectra, MIC; details: Thomasclavelia ramosa; 10^6 cells/ml; Gram +; read-out: MIC
[22] = tested on: Peptostreptococcus anaerobius KYA 27337; test: Antibacterial spectra, MIC
Pst. micros UPI 5464-1 = test: Antibacterial spectra, MIC; details: Parvimonas micra, UPI54641
[23] = tested on: Veillonella parvula KYA 10790; test: Antibacterial spectra, MIC; details: KYA10790
[24] = 10^6 cells/ml, Gram -, read-out: MIC

COc1c(N2CCC(N)C2)c(F)c(N)c2c(=O)c(C(=O)O)cn(C3CC3)c12 (centres unmarked) [Exp. 11, 5-amino-7-(3-amino-1-pyrrolidinyl)-1-cyclopropyl-6-fluoro-1,4-dihydro-8-methoxy-4-oxo-3-quinolinecarboxylic acid]
MIC (Bacilus subtilis PCI 219): 0.0125 µg/mL (≈ 0.0332 µM)
MIC [1]: 0.025 µg/mL (≈ 0.0664 µM)
MIC [2]: 0.05 µg/mL (≈ 0.133 µM)
MIC (S. aureus Smith): 0.025 µg/mL (≈ 0.0664 µM)
MIC (E. coli ML 4707): 0.025 µg/mL (≈ 0.0664 µM)
MIC (E. faecalis IID 682): 0.2 µg/mL
MIC [3]: 0.2 µg/mL (≈ 0.531 µM)
MIC (Shigella sonnei IID 969): 0.025 µg/mL (≈ 0.0664 µM)
MIC [4]: 0.2 µg/mL
MIC (S. pyogenes IID 692): 0.39 µg/mL (≈ 1.04 µM)
MIC (S. pneumoniae IID 552): 0.2 µg/mL (≈ 0.531 µM)
MIC [5]: 0.025 µg/mL (≈ 0.0664 µM)
MIC (E. coli ATCC 10536): 0.025 µg/mL (≈ 0.0664 µM)
MIC (P. mirabilis IID 994): 0.1 µg/mL (≈ 0.266 µM)
MIC [6]: 0.2 µg/mL (≈ 0.531 µM)
MIC [7]: 0.05 µg/mL (≈ 0.133 µM)
MIC (K. pneumoniae 1-220S): 0.2 µg/mL (≈ 0.531 µM)
MIC [8]: 0.05 µg/mL (≈ 0.133 µM)
MIC [9]: 0.05 µg/mL (≈ 0.133 µM)
MIC [10]: 0.2 µg/mL (≈ 0.531 µM)
MIC [11]: 0.1 µg/mL (≈ 0.266 µM)
MIC [12]: 0.78 µg/mL (≈ 2.07 µM)
MIC (P. aeruginosa IFO 12689): 1.56 µg/mL (≈ 4.14 µM)
MIC (P. aeruginosa IID 1210): 1.56 µg/mL (≈ 4.14 µM)
MIC (P. cepacia GIFU 518): 1.56 µg/mL (≈ 4.14 µM)
MIC (P. maltophilia GIFU 2491): 0.2 µg/mL (≈ 0.531 µM)
MIC [13]: 0.1 µg/mL (≈ 0.266 µM)
MIC [14]: 0.05 µg/mL (≈ 0.133 µM)
MIC [15]: 0.78 µg/mL (≈ 2.07 µM)
MIC ([16]; GM7000, 10^6 cells/ml, Gram -, read-out: MIC): 1.56 µg/mL (≈ 4.14 µM)
MIC (B. fragilis 0558; [24]): 1.56 µg/mL (≈ 4.14 µM)
MIC (B. fragilis 25285; [24]): 1.56 µg/mL (≈ 4.14 µM)
MIC (B. distasonis 8503): 12.5 µg/mL (≈ 33.2 µM)
MIC [17]: 1.56 µg/mL (≈ 4.14 µM)
MIC (B. vulgatus KYA 29327): 0.78 µg/mL (≈ 2.07 µM)
MIC [18]: 3.13 µg/mL (≈ 8.32 µM)
MIC (F. necrophorum S-45): 1.56 µg/mL (≈ 4.14 µM)
MIC (F. varium KYA 8501): 25 µg/mL (≈ 66.4 µM)
MIC [19]: 0.39 µg/mL (≈ 1.04 µM)
MIC [20]: 6.25 µg/mL (≈ 16.6 µM)
MIC [21]: 0.78 µg/mL (≈ 2.07 µM)
MIC (C. perfringens KYA 13123): 0.78 µg/mL (≈ 2.07 µM)
MIC (C. ramosum): 1.56 µg/mL (≈ 4.14 µM)
MIC ([22]; KYA27337): 0.78 µg/mL (≈ 2.07 µM)
MIC (Pst. micros UPI 5464-1): 0.78 µg/mL (≈ 2.07 µM)
MIC [23]: 0.78 µg/mL (≈ 2.07 µM)

COc1c(N2CCNCC2)c(F)c(N)c2c(=O)c(C(=O)O)cn(C3CC3)c12 [Exp. 10, 5-amino-1-cyclopropyl-6-fluoro-1,4-dihydro-8-methoxy-4-oxo-7-(1-piperazinyl)-3-quinolinecarboxylic acid]
MIC (Bacilus subtilis PCI 219): 0.025 µg/mL (≈ 0.0664 µM)
MIC [1]: 0.05 µg/mL (≈ 0.133 µM)
MIC [2]: 0.1 µg/mL (≈ 0.266 µM)
MIC (S. aureus Smith): 0.1 µg/mL (≈ 0.266 µM)
MIC (E. coli ML 4707): 0.05 µg/mL (≈ 0.133 µM)
MIC (E. faecalis IID 682): 0.39 µg/mL
MIC [3]: 0.1 µg/mL (≈ 0.266 µM)
MIC (Shigella sonnei IID 969): 0.025 µg/mL (≈ 0.0664 µM)
MIC [4]: 0.39 µg/mL
MIC (S. pyogenes IID 692): > 0.78 µg/mL
MIC (S. pneumoniae IID 552): > 0.78 µg/mL
MIC [5]: 0.025 µg/mL (≈ 0.0664 µM)
MIC (E. coli ATCC 10536): 0.05 µg/mL (≈ 0.133 µM)
MIC (P. mirabilis IID 994): 0.2 µg/mL (≈ 0.531 µM)
MIC [6]: 0.2 µg/mL (≈ 0.531 µM)
MIC [7]: 0.05 µg/mL (≈ 0.133 µM)
MIC (K. pneumoniae 1-220S): 0.2 µg/mL (≈ 0.531 µM)
MIC [8]: 0.2 µg/mL (≈ 0.531 µM)
MIC [9]: 0.05 µg/mL (≈ 0.133 µM)
MIC [10]: 0.2 µg/mL (≈ 0.531 µM)
MIC [11]: 0.2 µg/mL (≈ 0.531 µM)
MIC [12]: 0.39 µg/mL (≈ 1.04 µM)
MIC (P. aeruginosa IFO 12689): 1.56 µg/mL (≈ 4.14 µM)
MIC (P. aeruginosa IID 1210): 1.56 µg/mL (≈ 4.14 µM)
MIC (P. cepacia GIFU 518): 1.56 µg/mL (≈ 4.14 µM)
MIC (P. maltophilia GIFU 2491): 0.2 µg/mL (≈ 0.531 µM)
MIC [13]: 0.2 µg/mL (≈ 0.531 µM)
MIC [14]: 0.1 µg/mL (≈ 0.266 µM)
MIC [15]: 0.78 µg/mL (≈ 2.07 µM)
MIC ([16]; GM7000): 3.13 µg/mL (≈ 8.32 µM)
MIC (B. fragilis 0558): 3.13 µg/mL (≈ 8.32 µM)
MIC (B. fragilis 25285): 3.13 µg/mL (≈ 8.32 µM)
MIC (B. distasonis 8503): 6.25 µg/mL (≈ 16.6 µM)
MIC [17]: 6.25 µg/mL (≈ 16.6 µM)
MIC (B. vulgatus KYA 29327): 0.39 µg/mL (≈ 1.04 µM)
MIC [18, 24]: 1.56 µg/mL (≈ 4.14 µM)
MIC (F. necrophorum S-45): 1.56 µg/mL (≈ 4.14 µM)
MIC (F. varium KYA 8501): 50 µg/mL (≈ 133 µM)
MIC [19]: 0.78 µg/mL (≈ 2.07 µM)
MIC [20]: 12.5 µg/mL (≈ 33.2 µM)
MIC ([21]; 10^6 cells/ml, Gram +, read-out: MIC): 1.56 µg/mL (≈ 4.14 µM)
MIC (C. perfringens KYA 13123): 3.13 µg/mL (≈ 8.32 µM)
MIC (C. ramosum): 1.56 µg/mL (≈ 4.14 µM)
MIC ([22]; KYA27337, 10^6 cells/ml, Gram +, read-out: MIC): 1.56 µg/mL (≈ 4.14 µM)
MIC (Pst. micros UPI 5464-1): 0.39 µg/mL (≈ 1.04 µM)
MIC [23]: 0.39 µg/mL (≈ 1.04 µM)
